Data set [1] relates to HeLa cells. The experiment in a line: Cell viability by Trypan Blue method of substantially dry stored HeLa cells. It is filed as cell-based. The method, then:
Cell viability may be measured using a Trypan Blue staining procedure. […] Cell counting was performed in 9 mm KOVA glass slides 10 with Grid Chambers (Hycor) in triplicate under a Leitz Fluovert microscope. The percentage of cell survival is reported relative to untreated control cells. Briefly, HeLa cells were substantially dry stored using predetermined predehydration formulations (SC1, salubrinal and SC3, MLS-0315763) and a subset of the dehydration formulations set forth in Table 1 for a period of seven hours and then rehydrated using the rehydration formulations listed below (RC1, salubrinal and RC3, MLS-0315763). Cell viability was assessed seven days after rehydration using the Trypan Blue method. The results are shown in Table 3 and FIG. 3A and FIG. 3B.

In data set [2] the test system is human neonatal fibroblasts. Put plainly: Cell viability by ATP content of substantially dry stored human neonatal fibroblasts. Also noted: % CELL VIABILITY 24 hr / % CELL VIABILITY 48 hr / % CELL VIABILITY 120 hr: concentration or dose not given beside the values. It is filed as cell-based. The settings on record: for % CELL VIABILITY 24 hr / % CELL VIABILITY 48 hr / % CELL VIABILITY 120 hr: inhibitor in predehydration and rehydration formulation; for % CELL VIABILITY 24 hr: MCS dehydration formulation 41, dry stored 24 hr at ambient temperature; for % CELL VIABILITY 48 hr: MCS dehydration formulation 41, dry stored 48 hr at ambient temperature; for % CELL VIABILITY 120 hr: MCS dehydration formulation 41, dry stored 120 hr at ambient temperature. An excerpt:
ATP content may be determined using a Cell Titer-Glo Luminescent Cell viability Assay (Promega) in accordance with the manufacturer's instructions. The addition of the Cell Titer-Glo Luminescent reagent into the cells generates a luminescent signal proportional to the amount of intracellular ATP. The amount of ATP is directly proportional to the number of cells present in culture, and it is then a homogeneous method of determining the number of viable (metabolically active) cells in the rehydrated cell preparation.
Briefly, human neonatal fibroblasts were suspended in Cascade Media 106 and seeded as 100 ul cultures at a densities of 100-5000 cells per test in 96 well plates and incubated in an environment of ambient atmosphere while maintaining an elevated CO2 level (5%-10%) and temperature of 37 C with relative humidity of 85-95%. The culture is adjusted to specific composition of predehydration formulations and media specified concentration of each apoptosis inhibitor. The cells were incubated for a period of at least one hour but not more than 3 hours hr at 37° C. The predehydration formulation was thoroughly removed and 10-15 ul of MCS dehydration formulation 41 (Table 1) was added to each well. The cells were substantially air dried at 37 C, 5% CO2, 20% relative humidity over a period of 90 minutes, stored at ambient temperature for a period of 24, 48 or 120 hours. At the appropriate time, the substantially dry stored cells were rehydrated by treating with a rehydration formulation comprising the same concentration of apoptosis inhibitor in 100-200 μl of predehydration formulation. Cell viability was determined by measuring ATP content as described herein.

For data set [3], the system named is Mammalian cells. The settings on record: trehalose-loaded dried cells stored for even few minutes; cited from earlier work.

Each structure is given as a SMILES string. Entries after “also recorded” stand apart in the source; their conditions may differ.

For the compound `OC[C@H]1O[C@H](O[C@H]2O[C@H](CO)[C@@H](O)[C@H](O)[C@H]2O)[C@H](O)[C@@H](O)[C@@H]1O` [Trehalose], in data set [1] (HeLa cells, 7 hours dry storage, 7 days after rehydration), the “surviving / viable cells (in words)” value is “did not yield in any viable cells; also recorded: did not yield any surviving cells”. For the same compound, the “% HeLa Cell Viability” value in data set [1] (dry stored seven hours, Trypan Blue seven days after rehydration) is given as 0%. Besides, the “viable cells (in words)” value in data set [2] (by 24 hr of dry storage) is on record as “little to no viable cells”. Besides, in data set [2], the “% CELL VIABILITY 24 hr” value was found to be 7.5%, the “% CELL VIABILITY 48 hr” value amounted to 0.0% and the “% CELL VIABILITY 120 hr” value came out at 0.0%. For the same compound, the “cell survival after dry storage (in words)” value in data set [3] is “complete cell death”.

Regarding `CO[C@H]1C[C@@H]2CC[C@@H](C)[C@@](O)(O2)C(=O)C(=O)N2CCCC[C@H]2C(=O)O[C@H]([C@H](C)C[C@@H]2CC[C@@H](O)[C@H](OC)C2)CC(=O)[C@H](C)/C=C(\C)[C@@H](O)[C@@H](OC)C(=O)[C@H](C)C[C@H](C)/C=C/C=C/C=C/1C` [Rapamycin], in data set [2], the “% CELL VIABILITY 24 hr” value is on record as 88.4%, the “% CELL VIABILITY 48 hr” value worked out at 73.2% and the “% CELL VIABILITY 120 hr” value was found to be 90.0%.

Consider `O=C(NOC[C@H](O)CO)c1ccc(F)c(F)c1Nc1ccc(I)cc1F` [PD032591, N-[(2R)-2,3-dihydroxypropoxy]-3,4-difluoro-2-[(2-fluoro-4-iodophenyl)amino]-benzamide], for which, in data set [2], the “% CELL VIABILITY 24 hr” value turned out to be 100.0%, the “% CELL VIABILITY 48 hr” value turned out to be 85.1% and the “% CELL VIABILITY 120 hr” value turned out to be 95.7%.

For `O=C(/C=C/c1ccccc1)NC(NC(=S)Nc1cccc2cccnc12)C(Cl)(Cl)Cl` (stereo not shown) [Salubrinal], in data set [2], the “% CELL VIABILITY 24 hr” value turned out to be 100.0%, the “% CELL VIABILITY 48 hr” value is given as 72.9% and the “% CELL VIABILITY 120 hr” value was found to be 109.5%.

For the compound `O=c1cc(N2CCOCC2)oc2c(-c3ccccc3)cccc12` [LY294002, 2-(4-morpholinyl)-8-phenyl-4H-1-benzopyran-4-one], in data set [2], the “% CELL VIABILITY 24 hr” value turned out to be 83.8%, the “% CELL VIABILITY 48 hr” value was found to be 85.9% and the “% CELL VIABILITY 120 hr” value was determined as 98.7%.

Turning to `C[S+]([O-])CCCCN=C=S` [L-sulphurophane], in data set [2], the “% CELL VIABILITY 24 hr” value stood at 98.8%, the “% CELL VIABILITY 48 hr” value came out at 65.3% and the “% CELL VIABILITY 120 hr” value came to 50.9%.

The values are drawn from patent US20180184644A1, “CELL STABILIZATION” (Biomatrica, Inc., priority 2013, published 2018).
